What was measured:
Assay in all cases: FRET of YPet-PilZ-CyPet fusion protein, titration
Format in all cases: binding
YcgR (STM1798) = YcgR (STM1798) (Salmonella enterica, UniProt Q8ZP19)
[1] = target: BcsA (STM3619) PilZ domain (Salmonella enterica, UniProt Q93IN2)
PA3353 = PA3353 (Pseudomonas aeruginosa, UniProt Q9HYP3)
PA4324 = PA4324 (Pseudomonas aeruginosa, UniProt Q9HW77)

BcsA (STM3619) PilZ domain, sequence (Q93IN2 691-791): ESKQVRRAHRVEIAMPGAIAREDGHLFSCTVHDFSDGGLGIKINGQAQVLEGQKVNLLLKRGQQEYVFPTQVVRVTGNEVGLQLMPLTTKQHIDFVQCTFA
YcgR (STM1798), sequence (Q8ZP19 whole entry, the tested form may be a part): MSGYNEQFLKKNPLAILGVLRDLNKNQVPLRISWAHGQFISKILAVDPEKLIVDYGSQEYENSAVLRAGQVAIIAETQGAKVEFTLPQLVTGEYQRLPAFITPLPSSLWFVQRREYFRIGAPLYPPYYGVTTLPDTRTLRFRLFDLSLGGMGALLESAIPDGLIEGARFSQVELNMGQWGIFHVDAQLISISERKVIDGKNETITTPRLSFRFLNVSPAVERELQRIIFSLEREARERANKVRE

Structure (SMILES): Nc1nc2c(ncn2[C@@H]2O[C@@H]3CO[P@](=O)(O)O[C@H]4[C@@H](O)[C@H](n5cnc6c(=O)[nH]c(N)nc65)O[C@@H]4CO[P@](=O)(O)O[C@H]3[C@H]2O)c(=O)[nH]1 [c-di-GMP]
- Kd (YcgR (STM1798)): 0.191 ± 0.018 µM
- Kd [1]: 8.24 ± 0.238 µM
- Kd (PA3353): 0.088 ± 0.017 µM
- Kd (PA4324): 0.735 ± 0.474 µM
